Test [1] relates to ERK 1/2. As to the kind of experiment: ERK 1/2 phosphorylation (T202/Y204) in SKOV3 cells, immunoblot. Format: cell-based. As for the experimental part:
Cells were detached from their culture vessels by brief trypsinization, suspended in complete media and centrifuged at 250×g for 10 min at room temperature. The cell pellets were suspended in Dulbeco's phosphate buffered saline (DPBS) and re-centrifuged for a total of three washes. The cells were then re-suspended at 3.33E5/ml in 24 ml of either RPMI containing 0.5% BSA (Sigma Chem. Co. #A0336) (RPMI/BSA) or the conditioned media of growing NIH3T3 fibroblasts (10% FBS in DMEM) supplemented with 10 ng/ml vascular endothelial growth factor (VEGF) (CMN). The cells were then treated with or without 100 ug/ml soluble hyaluronic acid (HA; human umbilical, Calbiochem #385902) for 30 min at 37° C. under 5% CO2. Aliquots representing 2E6 cells were then plated into 10 cm culture dishes and A6 added to yield final concentrations of 0, 10, 100 and 1000 nM. The cells were cultured overnight (18 hr) at 37° C. under 5% CO2.
After 18 hr of treatment, the media were aspirated from the 10 cm dishes and saved. The plates were washed 3 times with 4 ml of ice-cold DPBS which were pooled with the reserved non-adherent cells. The non-adherent cells were centrifuged at 250×g for 10 min at 4° C., washed twice with cold DPBS, drained and lysed in 50 ul of cold RIPA buffer (ThermoScientific #89901) containing cocktails of broad spectrum phosphatase inhibitors (Calbiochem #524625; used at 2× final concentration) and protease inhibitors (Sigma #P8340) (RIPA/inh.). The 10 cm dishes were drained of remaining wash and the adherent cells lysed by scraping in 200 μL of cold RIPA/inh. For each test condition, the lysates of the non-adherent and adherent populations were combined, vortexed and then centrifuged at 14,000 rpm at 4° C. for 20 min. Aliquots of the cleared lysates were frozen at −80° C. immediately. A small aliquot was reserved for total protein analysis using a BCA Protein Assay Kit (Calbiochem #71285-3).
Samples representing 20 μg of total protein of each lysate were solubilized in the presence of 50 mM Tris pH 6.8, 10% glycerol, 2% SDS and 100 mM DTT for 5 min at 95° C. and then loaded onto 10-20% acrylamide gels (BioRad #345-0044, Tris-HCl, 1 mm, 26 well, 15 μL/well). Electrophoresis was performed using Laemli electrophoresis buffer (0.1% SDS, 25 mM Tris, 192 mM glycine) at 200 V, constant voltage, for one hour. Upon completion of electrophoresis, the proteins were transferred to Immun-Blot PVDF membranes (BioRad #162-0238) in ice-cold 20% methanol in 25 mM Tris, 192 mM glycine for 2 hr at 0.5 Amps, constant current/blotting apparatus. The membranes were then cut vertically between molecular weight markers and in half at the 64 kDa marker to generate pieces for screening of higher molecular weight proteins (e.g., FAK) and lower molecular weight proteins (e.g., MEK and GAPDH). The blots were then blocked for a minimum of 4 hrs at room temperature in 3% bovine serum albumin (Sigma A0336) in 50 mM Tris, pH 7.4, 145 mM NaCl, 0.05% Tween-20 (TTBS) containing 0.05% sodium azide.
Upon completion of the primary antibody incubation, the blots were washed three times for 10 min in TTBS and then incubated with 1/25,000 dilutions of peroxidase-conjugated donkey anti-mouse IgG (Jackson ImmunoResearch #715-035-150) or peroxidase-conjugated donkey anti-rabbit IgG (Jackson ImmunoResearch #711-035-152) in TTBS containing 3% BSA for one hour at room temperature. […]

Test [2] concerns the target T1, CD44 (Homo sapiens, UniProt P16070).
T1 construct: endogenous in cells; host or cells: SKOV3 cells
The experiment in a line: Immunoprecipitation of Å6Cbiotin-crosslinked SKOV3 polypeptides, HRP-SA blotting. Format: binding. As to conditions: SKOV3 cells, 100 μM Å6Cbiotin, BS3 crosslinking, DF1485 anti-CD44. As for the experimental part:
In FIGS. 1 and 2 SKOV3 cells were incubated with or without 100 μM Å6Cbiotin (Å6CbioXL and ConXL, respectively) for 30 min at 4° C. The cells were then crosslinked with 5 mM bis(sulfosuccinimidyl) suberate (Sulfo-DSS or BS^3) for 30 min at 4° C. and Triton X-100 lysates generated. The lysates were pre-cleared by incubating with Protein A-agarose for 2 hr at room temperature. Aliquots representing 100 μg of the cleared lysates were then incubated overnight at room temperature with 20 μL of Protein A-agarose plus 2 μg of anti-Tenascin R (TnR; E-18, Santa Cruz Biotech.), anti-Tenascin C (TnC; 300-3, Santa Cruz Biotech.), anti-CD44 (DF1485, Santa Cruz Biotech.), anti-Plexin-A1 (Pl A1; H-60, Santa Cruz Biotech.) or murine IgG1 (Sigma Chem. Co.). After washing 5 times with lysis buffer, the immunoprecipitated polypeptides were eluted from the Protein A-agarose by boiling in SDS-PAGE sample buffer. The eluted material and 2 μg aliquots of the starting material were then subjected to SDS-PAGE, transfer to PVDF membranes and blotting with chemiluminescent horseradish peroxidase (HRP)-conjugated streptavidin (HRP-SA).
In FIG. 3 SKOV3 cells were incubated with or without 100 μM Å6Cbiotin (Å6CbioXL and control, respectively) for 30 minutes at 4° C. The cells were then crosslinked with 5 mM BS3 for 30 min at 4° C. […]

“Also recorded” adds a separate entry of the source.

T1 sequence (P16070 21-742): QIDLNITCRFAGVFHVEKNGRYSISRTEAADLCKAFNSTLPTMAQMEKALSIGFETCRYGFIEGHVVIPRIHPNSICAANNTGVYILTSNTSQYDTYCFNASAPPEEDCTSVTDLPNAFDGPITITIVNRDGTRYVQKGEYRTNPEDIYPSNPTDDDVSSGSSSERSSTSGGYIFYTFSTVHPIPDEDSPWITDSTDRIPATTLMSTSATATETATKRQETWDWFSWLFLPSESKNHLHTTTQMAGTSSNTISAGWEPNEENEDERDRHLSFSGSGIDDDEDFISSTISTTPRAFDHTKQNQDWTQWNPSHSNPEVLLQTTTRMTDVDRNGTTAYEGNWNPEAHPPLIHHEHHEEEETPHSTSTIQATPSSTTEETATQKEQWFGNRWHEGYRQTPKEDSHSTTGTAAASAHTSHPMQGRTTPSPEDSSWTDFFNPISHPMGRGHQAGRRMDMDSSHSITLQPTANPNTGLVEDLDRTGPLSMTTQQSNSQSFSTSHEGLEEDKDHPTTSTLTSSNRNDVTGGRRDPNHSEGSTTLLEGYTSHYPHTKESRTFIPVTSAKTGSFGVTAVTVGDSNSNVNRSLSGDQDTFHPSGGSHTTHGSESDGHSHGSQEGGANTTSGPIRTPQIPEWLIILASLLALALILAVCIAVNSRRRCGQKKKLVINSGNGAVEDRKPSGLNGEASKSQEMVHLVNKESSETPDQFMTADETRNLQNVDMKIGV

Turning to “acetyl-Lys-Pro-Ser-Ser-Pro-Pro-Glu-Glu-NH2 (Ac-KPSSPPEE-NH2) [Å6]”, the pERK/Erk entry in test [1] (CM/V) was “appears to have increased”; in test [1] (CM/V with HA present), “decreased”; in test [1] (basal media (RPMI/BSA)), “increased pERK/Erk in a dose dependent manner”. Further, in test [1] (basal media with HA), the “pErk/Erk response to HA” value is “decreased this response to HA”. Besides, in test [2], the “target of the peptide identified by anti-CD44 immunoprecipitation” value is “targets CD44; also recorded: confirm CD44 as the target”.

Source of the values: patent US8697629B2, “Modulation of intracellular signaling” (Angstrom Pharmaceuticals, Inc., priority 2010, dated 2014).
